# Measurements published in patent US20060074073A1, “Therapeutic combinations comprising poly (ADP-ribose) polymerases inhibitor” (AGOURON PHARMACEUTICALS, INC., priority 2004, published 2006).
# Columns and labels:
# [1] = IV pharmacokinetics in dogs; settings: Beagle, in vivo, dog
# LoVo cells = test: Inhibition of potentially lethal damage recovery, colony formation; format: cell-based; settings: 8 Gy + 0.4 μM compound
# Text: A contributory factor to radiation resistance in vivo is the ability of quiescent cells to repair potentially lethal damage (PLD) (Weichselbaum, R. R. and Little, J. B. The differential response of human tumors to fractionated radiation may be due to a post-irradiation repair process. Br. J. Cancer 1982; 46: 532-537). In vitro models of PLD measure the increase in survival of irradiated, growth arrested cells following delayed plating for colony formation. Recovery from potentially lethal damage was measured in vitro using LoVo cells that had been arrested in G1 phase by growing to confluence to mimic the radio-resistant quiescent cell population in tumors. Cells were exposed to 8 Gy of γ-irradiation (Gammacel 1000 Elite, Nordian International Inc. Canada), and either harvested and plated for colony formation assay immediately or maintained as growth arrested confluent cultures for a 24-hour recovery period before harvesting and plating for the colony formation assay. Where indicated, 0.4 μM compound Formula 1 was added 30 minutes before irradiation and was present throughout the recovery incubation.
# [2] = IV pharmacokinetics in rats; settings: Wistar, rat, in vivo, 5 mg/kg
# Text: Each of the dose treatment groups was split into 2 cohort groups of 4 mice. The reason for cohort blood sampling is due to the blood volume limitations of the mouse species. Blood was drawn from each cohort every other pharmacokinetic sampling time. […] Three mice per dose group were euthanized at each of the collection time points. […] Blood from each rat was collected for each time point.
# PARP = test: Inhibition of cellular NAD consumption in mouse peripheral blood lymphocytes after PARP activation; format: cell-based; settings: PARP activated by MNNG, hydrogen peroxide or gamma irradiation, data not shown
# Text: After DNA damage, cellular NAD is rapidly incorporated into poly-ADP-ribose polymer.
# [3] = 15 mg/kg single IV dose as glucuronate salt
structure (smiles),measurement,setting,value
"CNCc1ccc(-c2[nH]c3cc(F)cc4c3c2CCNC4=O)cc1 [compound of formula 1, 8-fluoro-2-{4-[(methylamino)methyl]phenyl}-1,3,4,5-tetrahydro-6H-azepino[5,4,3-cd]indol-6-one]",AUC(0-inf),[1]; 15 mg/kg single IV dose (free base) as glucuronate salt,4100 ± 500 ng·h/mL
same,clearance,[1]; [3],61.8 ± 8.2 mL/min/kg
same,half-life,[1]; [3],4.5 ± 1.1 h
same,Vd,"[1]; 15 mg/kg single IV dose as glucuronate salt, read-out: Vss",15.2 ± 2.3 L/kg
same,% PLDR,LoVo cells; 100 × (survival at 24 hr-survival at 0 time)/survival at 0 time,211 ± 184%
same,Survival at 0 time,LoVo cells; G1-arrested,0.02 ± 0.01
same,Survival at 24 hr,LoVo cells; G1-arrested,0.057 ± 0.038
same,inhibition at 0.4 µM,"LoVo cells; Homo sapiens, mean of 3 independent experiments, read-out: Inhibition of PLDR",64.9%
same,AUC(0-inf),[2],990 ng·h/mL
same,Vd,[2],10 L/kg
same,clearance,[2],85 mL/min/kg
same,half-life,[2],2.8 h
same,inhibition of PARP catalytic activity (cellular NAD consumption),PARP,inhibits PARP catalytic activity
